# Measurements reported in patent US10093683B2, “Factor XIa inhibitors” (Merck Sharp & Dohme Corp., priority 2014, dated 2018).
# Molecular target: human Factor XIa (Homo sapiens (Human), UniProt P03951)
# Experiment: Factor XIa Assay
# Type: biochemical
# Conditions: purified human Factor XIa 40 pM, Z-Gly-Pro-Arg-AFC 100 μM, pH 7.4; read-out: FXIa Ki
# Method: The effectiveness of a compound of the present invention as an inhibitor of Coagulation Factor XIa can be determined using a relevant purified serine protease, and an appropriate synthetic substrate. The rate of hydrolysis of the chromogenic or fluorogenic substrate by the relevant serine protease was measured both in the absence and presence of compounds of the present invention. Assays were conducted at room temperature or at 37° C. […] A decrease in the rate of fluorescence change in the presence of inhibitor is indicative of enzyme inhibition. Such methods are known to one skilled in the art. The results of this assay are expressed as the inhibitory constant, Ki.
# Factor XIa determinations were made in 50 mM HEPES buffer at pH 7.4 containing 150 mM NaCl, 5 mM CaCl2, and 0.1% PEG 8000 (polyethylene glycol; JT Baker or Fisher Scientific). Determinations were made using purified human Factor XIa at a final concentration of 40 pM (Sekisui Diagnostics) and he synthetic substrate, Z-Gly-Pro-Arg-AFC, TFA salt (Sigma #C0980) at a concentration of 100 μM.
# Times required to achieve equilibration between enzyme and inhibitor were determined in control experiments. Initial velocities of product formation in the absence (Vo) or presence of inhibitor (Vi) were measured. Assuming competitive inhibition, and that unity is negligible compared Km/[S], [I]/e, and [I]/e (where [S], [I], and e respectively represent the total concentrations, of substrate, inhibitor and enzyme), the equilibrium constant (Ki) for dissociation of the inhibitor from the enzyme can be obtained from the dependence of Vo/Vi on [I] shown in the following equation.
# Chain of human Factor XIa (P03951 388-625): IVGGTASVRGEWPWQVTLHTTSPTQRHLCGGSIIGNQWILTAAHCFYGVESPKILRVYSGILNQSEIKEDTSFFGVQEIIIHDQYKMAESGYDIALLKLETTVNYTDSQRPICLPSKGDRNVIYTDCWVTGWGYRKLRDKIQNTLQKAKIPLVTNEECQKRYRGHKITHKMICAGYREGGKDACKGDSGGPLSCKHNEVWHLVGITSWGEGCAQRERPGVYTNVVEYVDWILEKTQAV
# Chain of human Factor XIa (P03951 19-387 partner): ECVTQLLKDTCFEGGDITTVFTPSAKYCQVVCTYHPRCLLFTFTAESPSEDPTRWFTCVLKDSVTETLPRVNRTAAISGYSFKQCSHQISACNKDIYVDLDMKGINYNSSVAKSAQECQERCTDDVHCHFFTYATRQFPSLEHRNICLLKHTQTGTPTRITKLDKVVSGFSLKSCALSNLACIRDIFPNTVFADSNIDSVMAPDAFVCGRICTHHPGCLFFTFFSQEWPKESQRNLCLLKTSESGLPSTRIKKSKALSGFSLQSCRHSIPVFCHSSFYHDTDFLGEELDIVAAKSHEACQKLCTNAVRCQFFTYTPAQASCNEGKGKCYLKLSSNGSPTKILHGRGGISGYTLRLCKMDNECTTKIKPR
row,SMILES,Ki
1,"COC(=O)Nc1ccc(C(=O)N[C@@H](CCS(C)(=O)=O)C(=O)N2CCC[C@@]3(C2)OC(=O)Nc2ccc(Cl)cc23)cc1 [Example 59, methyl (4-(((S)-1-((R)-6-chloro-2-oxo-1,2-dihydrospiro[benzo[d][1,3]oxazine-4,3′-piperidin]-1′-yl)-4-(methylsulfonyl)-1-oxobutan-2-yl)carbamoyl)phenyl)carbamate]",97.7 nM
2,"COC(=O)Nc1ccc(C(=O)N[C@@H](CC(F)(F)F)C(=O)N2CCC[C@@]3(C2)OC(=O)Nc2ccc(Cl)cc23)cc1 [Example 64, methyl (4-(((S)-1-((R)-6-chloro-2-oxo-1,2-dihydrospiro[benzo[d][1,3]oxazine-4,3′-piperidin]-1′-yl)-4,4,4-trifluoro-1-oxobutan-2-yl)carbamoyl)phenyl)carbamate]",1930 nM
3,"COC(=O)Nc1ccc(C(=O)N[C@H](C(=O)N2CCC[C@@]3(C2)OC(=O)Nc2ccc(Cl)c(F)c23)C2CC2)cc1 [Example 68, methyl (4-(((S)-2-((R)-6-chloro-5-fluoro-2-oxo-1,2-dihydrospiro[benzo[d][1,3]oxazine-4,3′-piperidin]-1′-yl)-1-cyclopropyl-2-oxoethyl)carbamoyl)phenyl)carbamate]",56.4 nM
4,"COC(=O)Nc1ccc(C(=O)N[C@@H](Cc2cnc3ccccc3n2)C(=O)N2CCC[C@@]3(C2)OC(=O)Nc2ccc(Cl)c(F)c23)cc1 [Example 69, methyl (4-(((S)-1-((R)-6-chloro-5-fluoro-2-oxo-1,2-dihydrospiro[benzo[d][1,3]oxazine-4,3′-piperidin]-1′-yl)-1-oxo-3-(quinoxalin-2-yl)propan-2-yl)carbamoyl)phenyl)carbamate]",36.2 nM
5,"COC(=O)Nc1ccc(C(=O)N[C@@H](Cc2c[nH]c3ccccc23)C(=O)N2CCC[C@@]3(C2)OC(=O)Nc2ccc(Cl)c(F)c23)cc1 [Example 70, methyl (4-(((S)-1-((R)-6-chloro-5-fluoro-2-oxo-1,2-dihydrospiro[benzo[d][1,3]oxazine-4,3′-piperidin]-1′-yl)-3-(1H-indol-3-yl)-1-oxopropan-2-yl)carbamoyl)phenyl)carbamate]",20.7 nM
6,"COC(=O)Nc1ccc(C(=O)N[C@@H](CC2CCC2)C(=O)N2CCC[C@@]3(C2)OC(=O)Nc2ccc(Cl)cc23)cc1 [Example 71, methyl (4-(((S)-1-((R)-6-chloro-2-oxo-1,2-dihydrospiro[benzo[d][1,3]oxazine-4,3′-piperidin]-1′-yl)-3-cyclobutyl-1-oxopropan-2-yl)carbamoyl)phenyl)carbamate]",50.9 nM
7,"COC(=O)Nc1ccc(C(=O)N[C@@H](CC2CCCC2)C(=O)N2CCC[C@@]3(C2)OC(=O)Nc2ccc(Cl)cc23)cc1 [Example 73, methyl (4-(((S)-1-((R)-6-chloro-2-oxo-1,2-dihydrospiro[benzo[d][1,3]oxazine-4,3′-piperidin]-1′-yl)-3-cyclopentyl-1-oxopropan-2-yl)carbamoyl)phenyl)carbamate]",32 nM
8,"COC/C=C/c1ccc(C[C@H](NC(=O)c2ccc(NC(=O)OC)cc2)C(=O)N2CC[C@@]3(C2)OC(=O)Nc2ccc(Cl)cc23)cc1 [Example 80, methyl (4-(((S)-1-((R)-6-chloro-2-oxo-1,2-dihydrospiro[benzo[d][1,3]oxazine-4,3′-pyrrolidin]-1′-yl)-3-(4-((E)-3-methoxyprop-1-en-1-yl)phenyl)-1-oxopropan-2-yl)carbamoyl)phenyl)carbamate]",75 nM
9,"COC(=O)Nc1ccc(C(=O)N[C@@H](CC(=O)N2CC(F)(F)C2)C(=O)N2CCC[C@@]3(C2)OC(=O)Nc2ccc(Cl)cc23)cc1 [Example 85, methyl (4-(((S)-1-((R)-6-chloro-2-oxo-1,2-dihydrospiro[benzo[d][1,3]oxazine-4,3′-piperidin]-1′-yl)-4-(3,3-difluoroazetidin-1-yl)-1,4-dioxobutan-2-yl)carbamoyl)phenyl)carbamate]",33.3 nM
10,"COC(=O)Nc1ccc(C(=O)N[C@@H](CC(=O)NC2CCC2)C(=O)N2CCC[C@@]3(C2)OC(=O)Nc2ccc(Cl)cc23)cc1 [Example 86, methyl (4-(((S)-1-((R)-6-chloro-2-oxo-1,2-dihydrospiro[benzo[d][1,3]oxazine-4,3′-piperidin]-1′-yl)-4-(cyclobutylamino)-1,4-dioxobutan-2-yl)carbamoyl)phenyl)carbamate]",33.7 nM
11,"COC(=O)Nc1ccc(C(=O)N[C@@H](CC(=O)N2CCOCC2)C(=O)N2CC[C@@]3(C2)OC(=O)Nc2ccc(Cl)cc23)cc1 [Example 88, methyl (4-(((S)-1-((R)-6-chloro-2-oxo-1,2-dihydrospiro[benzo[d][1,3]oxazine-4,3′-pyrrolidin]-1′-yl)-4-morpholino-1,4-dioxobutan-2-yl)carbamoyl)phenyl)carbamate]",20 nM
12,"COC(=O)Nc1ccc(C(=O)N[C@@H](CC(=O)NC2CCOCC2)C(=O)N2CC[C@@]3(C2)OC(=O)Nc2ccc(Cl)cc23)cc1 [Example 89, methyl (4-(((S)-1-((R)-6-chloro-2-oxo-1,2-dihydrospiro[benzo[d][1,3]oxazine-4,3′-pyrrolidin]-1′-yl)-1,4-dioxo-4-((tetrahydro-2H-pyran-4-yl)amino)butan-2-yl)carbamoyl)phenyl)carbamate]",59.2 nM
13,"COC(=O)Nc1ccc(C(=O)N[C@@H](CC(=O)Nc2ccccn2)C(=O)N2CC[C@@]3(C2)OC(=O)Nc2ccc(Cl)cc23)cc1 [Example 90, methyl (4-(((S)-1-((R)-6-chloro-2-oxo-1,2-dihydrospiro[benzo[d][1,3]oxazine-4,3′-pyrrolidin]-1′-yl)-1,4-dioxo-4-(pyridin-2-ylamino)butan-2-yl)carbamoyl)phenyl)carbamate]",57.4 nM
14,"COC(=O)Nc1ccc(C(=O)N[C@@H](CC(=O)Nc2ccc(F)cc2)C(=O)N2CC[C@@]3(C2)OC(=O)Nc2ccc(Cl)cc23)cc1 [Example 91, methyl (4-(((S)-1-((R)-6-chloro-2-oxo-1,2-dihydrospiro[benzo[d][1,3]oxazine-4,3′-pyrrolidin]-1′-yl)-4-((4-fluorophenyl)amino)-1,4-dioxobutan-2-yl)carbamoyl)phenyl)carbamate]",144 nM
15,"COC(=O)Nc1ccc(C(=O)N[C@@H](CC(=O)NS(=O)(=O)C2CC2)C(=O)N2CC[C@@]3(C2)OC(=O)Nc2ccc(Cl)cc23)cc1 [Example 92, methyl (4-(((S)-1-((R)-6-chloro-2-oxo-1,2-dihydrospiro[benzo[d][1,3]oxazine-4,3′-pyrrolidin]-1′-yl)-4-(cyclopropanesulfonamido)-1,4-dioxobutan-2-yl)carbamoyl)phenyl)carbamate]",56.1 nM
16,"COC(=O)Nc1ccc(C(=O)N[C@@H](CC(=O)NC2COC2)C(=O)N2CC[C@@]3(C2)OC(=O)Nc2ccc(Cl)cc23)cc1 [Example 93, methyl (4-(((S)-1-((R)-6-chloro-2-oxo-1,2-dihydrospiro[benzo[d][1,3]oxazine-4,3′-pyrrolidin]-1′-yl)-4-(oxetan-3-ylamino)-1,4-dioxobutan-2-yl)carbamoyl)phenyl)carbamate]",45.8 nM
17,"COC(=O)Nc1ccc(C(=O)N[C@@H](CC(=O)N2CC(N(C)C)C2)C(=O)N2CCC[C@@]3(C2)OC(=O)Nc2ccc(Cl)cc23)cc1 [Example 96, methyl (4-(((S)-1-((R)-6-chloro-2-oxo-1,2-dihydrospiro[benzo[d][1,3]oxazine-4,3′-piperidin]-1′-yl)-4-(3-(dimethylamino)azetidin-1-yl)-1,4-dioxobutan-2-yl)carbamoyl)phenyl)carbamate]",203 nM
18,"COC(=O)Nc1ccc(C(=O)N[C@@H](CCF)C(=O)N2CCC[C@@]3(C2)OC(=O)Nc2ccc(Cl)cc23)cc1 [Example 103, methyl (4-(((S)-1-((R)-6-chloro-2-oxo-1,2-dihydrospiro[benzo[d][1,3]oxazine-4,3′-piperidin]-1′-yl)-4-fluoro-1-oxobutan-2-yl)carbamoyl)phenyl)carbamate]",52 nM
19,"COC(=O)Nc1ccc(C(=O)N[C@@H](CC2CCC(F)(F)CC2)C(=O)N2CCC[C@@]3(C2)OC(=O)Nc2ccc(Cl)cc23)cc1 [Example 106, methyl (4-(((S)-1-((R)-6-chloro-2-oxo-1,2-dihydrospiro[benzo[d][1,3]oxazine-4,3′-piperidin]-1′-yl)-3-(4,4-difluorocyclohexyl)-1-oxopropan-2-yl)carbamoyl)phenyl)carbamate]",16.8 nM
20,"COC(=O)Nc1ccc(C(=O)N[C@@H](CCNC(=O)C2CCC2)C(=O)N2CCC[C@@]3(C2)OC(=O)Nc2ccc(Cl)cc23)cc1 [Example 107, methyl (4-(((S)-1-((R)-6-chloro-2-oxo-1,2-dihydrospiro[benzo[d][1,3]oxazine-4,3′-piperidin]-1′-yl)-4-(cyclobutanecarboxamido)-1-oxobutan-2-yl)carbamoyl)phenyl)carbamate]",50.7 nM
21,"COC(=O)Nc1ccc(C(=O)N[C@@H](CCNC(=O)OC2CCC2)C(=O)N2CCC[C@@]3(C2)OC(=O)Nc2ccc(Cl)cc23)cc1 [Example 109, methyl (4-(((S)-1-((R)-6-chloro-2-oxo-1,2-dihydrospiro[benzo[d][1,3]oxazine-4,3′-piperidin]-1′-yl)-4-((cyclobutoxycarbonyl)amino)-1-oxobutan-2-yl)carbamoyl)phenyl)carbamate]",48.3 nM
